What was measured:
[1] = tested on: antibodies in sera from SARS patients (sera 1a, 1b, 2, 6, 37, 62, London, SARS-yellow, SARS-green); type: binding, human; design: Binding of serum 6 to linear peptides of protein X1 of SARS-CoV Urbani / Binding of serum 37 to linear peptides of protein X1 of SARS-CoV Urbani / Binding of serum 6 to looped/cyclic peptide (PEPSCAN-ELISA) / Binding of serum 37 to looped/cyclic peptide (PEPSCAN-ELISA) / Binding of serum 37 to looped/cyclic peptides of protein X1 of SARS-CoV Urbani / Binding of serum 6 to linear peptides of protein X2 / Binding of serum 37 to linear peptides of protein X2 / Binding of serum 37 to looped/cyclic peptides of protein X2 of SARS-CoV Urbani / Binding of serum 6 to linear peptides of protein M of SARS-CoV Urbani / Binding of serum 37 to linear peptides of protein M of SARS-CoV Urbani / Binding of serum 6 to looped/cyclic peptides of protein M of SARS-CoV Urbani / Binding of serum 37 to looped/cyclic peptides of protein M of SARS-CoV Urbani / Binding of serum 6 to linear peptides of protein X3 of SARS-CoV Urbani / Binding of serum 37 to linear peptides of protein X3 of SARS-CoV Urbani / Binding of serum 37 to looped/cyclic peptides of protein X3 of SARS-CoV Urbani / Binding of serum 6 to linear peptides of protein X4 of SARS-CoV Urbani / Binding of serum 37 to linear peptides of protein X4 of SARS-CoV Urbani / Binding of serum 37 to looped/cyclic peptides of protein X4 of SARS-CoV Urbani / Binding of serum 6 to linear peptides of protein X5 of SARS-CoV Urbani / Binding of serum 37 to linear peptides of protein X5 of SARS-CoV Urbani / Binding of serum 37 to looped/cyclic peptides of protein X5 of SARS-CoV Urbani / Binding of serum 6 to linear peptides of protein N of SARS-CoV Urbani / Binding of serum 37 to linear peptides of protein N of SARS-CoV Urbani / Binding of serum 6 to linear peptide (PEPSCAN-ELISA) / Binding of serum 1a to looped/cyclic peptides of protein N of SARS-CoV Urbani / Binding of serum 1b to looped/cyclic peptides of protein N of SARS-CoV Urbani / Binding of serum 2 to looped/cyclic peptides of protein N of SARS-CoV Urbani / Binding of serum 6 to looped/cyclic peptides of protein N of SARS-CoV Urbani / Binding of serum 37 to looped/cyclic peptides of protein N of SARS-CoV Urbani / Binding of serum 62 to looped/cyclic peptides of protein N of SARS-CoV Urbani / Binding of serum London to looped/cyclic peptides of protein N of SARS-CoV Urbani / Binding of serum SARS-green to looped/cyclic peptides of protein N of SARS-CoV Urbani: unit not given here
[2] = tested on: rabbit serum obtained by immunizing a rabbit with the SARS-CoV strain Frankfurt 1; type: binding; design: Binding of a rabbit serum to linear peptides / Binding of a rabbit serum to looped peptides / Rabbit serum linear peptides / Rabbit serum looped peptides / Binding of a rabbit serum to linear peptides of protein N of SARS-CoV Urbani (Rabbit serum linear peptides) / Binding of a rabbit serum to looped/cyclic peptides of protein N of SARS-CoV Urbani (Rabbit serum looped peptides): unit not given here
[3] = tested on: recombinant human anti-SARS-CoV antibody 03-018; type: binding; design: Binding of antibody 03-018 to linear peptides of the N protein of SARS-CoV Urbani / Binding of antibody 03-018 to looped/cyclic peptides of the N protein of SARS-CoV Urbani: unit not given here
[4] = tested on: control sera (pooled serum of ten healthy LUMC hospital workers; commercial negative donor pooled serum from the Dutch bloodbank); type: binding, human; design: Binding of Control serum LUMC to linear peptides / Binding of Control serum Blood-bank to linear peptides / Binding of Control serum LUMC to looped peptides / Binding of Control Serum Blood-Bank to Looped peptides / Binding of Control serum LUMC to linear peptides of the protein M of SARS-CoV Urbani / Binding of Control serum Blood-bank to linear peptides of the protein M of SARS-CoV Urbani / Binding of Control serum LUMC to looped peptides of the protein M of SARS-CoV Urbani / Binding of Control Serum Blood-Bank to Looped peptides of the protein M of SARS-CoV Urbani: unit not given here

| Sequence | Binding of serum 1a to looped/cyclic peptides of protein N of SARS-CoV Urbani [1] | Binding of serum 1b to looped/cyclic peptides of protein N of SARS-CoV Urbani [1] | Binding of serum 2 to looped/cyclic peptides of protein N of SARS-CoV Urbani [1] | Binding of serum 6 to looped/cyclic peptides of protein N of SARS-CoV Urbani [1] | Binding of serum 37 to looped/cyclic peptides of protein N of SARS-CoV Urbani [1] | Binding of serum 62 to looped/cyclic peptides of protein N of SARS-CoV Urbani [1] | Binding of serum London to looped/cyclic peptides of protein N of SARS-CoV Urbani [1] | Binding of serum SARS-green to looped/cyclic peptides of protein N of SARS-CoV Urbani [1] | Binding of serum SARS-yellow to looped/cyclic peptides of protein N of SARS-CoV Urbani [1] | Binding of a rabbit serum to linear peptides of protein N of SARS-CoV Urbani (Rabbit serum linear peptides) [2] | Binding of a rabbit serum to looped/cyclic peptides of protein N of SARS-CoV Urbani (Rabbit serum looped peptides) [2] | Binding of antibody 03-018 to linear peptides of the N protein of SARS-CoV Urbani [3] | Binding of antibody 03-018 to looped/cyclic peptides of the N protein of SARS-CoV Urbani [3] | Binding of Control Serum Blood-Bank to Looped peptides [4] | Binding of Control serum Blood-bank to linear peptides [4] | Binding of Control serum LUMC to linear peptides [4] | Binding of Control serum LUMC to looped peptides [4] | Binding of serum 1a to linear peptides of protein N of SARS-CoV Urbani [1] | Binding of serum 1b to linear peptides of protein N of SARS-CoV Urbani [1] | Binding of serum 2 to linear peptides of protein N of SARS-CoV Urbani [1] | further results |
| --- | --- | --- | --- | --- | --- | --- | --- | --- | --- | --- | --- | --- | --- | --- | --- | --- | --- | --- | --- | --- | --- |
| TQGNFGDQDLIRQGT | 0.4 | 0.3 | 0.4 | 0.2 | 0.7 | 0.7 | 0.5 | 0.5 | 0.6 | 0.2 | 0.6 | 0.1 | 0.2 | 0.8 | 0.8 | 0.9 | 0.8 | – | – | – | Binding of serum 1a to linear peptide (PEPSCAN-ELISA) [1]: 0.3; Binding of serum 1b to linear peptide (PEPSCAN-ELISA) [1]: 0.2; Binding of serum 2 to linear peptide (PEPSCAN-ELISA) [1]: 0.2; Binding of serum 6 to linear peptide (PEPSCAN-ELISA) [1]: 0.2; Binding of serum 37 to linear peptide (PEPSCAN-ELISA) [1]: 0.9; Binding of serum 62 to linear peptide (PEPSCAN-ELISA) [1]: 0.8; Binding of serum London to linear peptide (PEPSCAN-ELISA) [1]: 0.6; Binding of serum SARS-green to linear peptide (PEPSCAN-ELISA) [1]: 0.6; Binding of serum SARS-yellow to linear peptide (PEPSCAN-ELISA) [1]: 0.6 |
| TQHGKEELRFPRGQG | 0.3 | 0.2 | 0.3 | 0.2 | 0.5 | 0.3 | 0.4 | 0.2 | 0.4 | 0.1 | 0.3 | 0.1 | 0.2 | 0.6 | 0.9 | 0.8 | 0.6 | 0.3 | 0.2 | 0.3 | Binding of serum 6 to linear peptides of protein N of SARS-CoV Urbani [1]: 0.2; Binding of serum 37 to linear peptides of protein N of SARS-CoV Urbani [1]: 0.7; Binding of serum 62 to linear peptides of protein N of SARS-CoV Urbani [1]: 0.8; Binding of serum London to linear peptides of protein N of SARS-CoV Urbani [1]: 0.5; Binding of serum SARS-green to linear peptides of protein N of SARS-CoV Urbani [1]: 0.4; Binding of serum SARS-yellow to linear peptides of protein N of SARS-CoV Urbani [1]: 0.6 |
| TRNPNNNAATVLQLP | 0.4 | 0.3 | 0.7 | 0.3 | 0.6 | 0.5 | 0.5 | 0.8 | 0.5 | 0.1 | 0.5 | 0.1 | 0.2 | 0.8 | 0.7 | 0.8 | 0.7 | 0.3 | 0.1 | 0.3 | Binding of serum 6 to linear peptides of protein N of SARS-CoV Urbani [1]: 0.2; Binding of serum 37 to linear peptides of protein N of SARS-CoV Urbani [1]: 0.6; Binding of serum 62 to linear peptides of protein N of SARS-CoV Urbani [1]: 0.7; Binding of serum London to linear peptides of protein N of SARS-CoV Urbani [1]: 0.5; Binding of serum SARS-green to linear peptides of protein N of SARS-CoV Urbani [1]: 0.3; Binding of serum SARS-yellow to linear peptides of protein N of SARS-CoV Urbani [1]: 0.7 |
| TRRVRGGDGKMKELS | 0.2 | 0.1 | 0.2 | 0.2 | 0.4 | 0.3 | 0.3 | 0.0 | 0.2 | 0.2 | 0.3 | 0.1 | 0.2 | 0.5 | 0.7 | 0.8 | 0.5 | 0.3 | 0.2 | 0.3 | Binding of serum 6 to linear peptides of protein N of SARS-CoV Urbani [1]: 0.3; Binding of serum 37 to linear peptides of protein N of SARS-CoV Urbani [1]: 0.7; Binding of serum 62 to linear peptides of protein N of SARS-CoV Urbani [1]: 0.8; Binding of serum London to linear peptides of protein N of SARS-CoV Urbani [1]: 0.5; Binding of serum SARS-green to linear peptides of protein N of SARS-CoV Urbani [1]: 0.3; Binding of serum SARS-yellow to linear peptides of protein N of SARS-CoV Urbani [1]: 0.7 |
| TVTKKSAAEASKKPR | 0.2 | 0.1 | 0.2 | 0.1 | 0.5 | 0.3 | 0.3 | 0.0 | 0.2 | 0.2 | 0.5 | 0.1 | 0.2 | 0.4 | 1.0 | 1.0 | 0.3 | – | – | – | Recognition of the peptide by sera of SARS-CoV infected individuals, and form (linear, looped/cyclic) in which it is recognized [1]: recognized in linear form |
